Tests used:
Candida krusei = assay: Coloration of Candida krusei colonies on detection medium; format: cell-based; parameters: key: 0=absence of coloration; 0.5=trace coloration; 1=weak coloration; 2=strong coloration
Description: (§1) Preparation of the detection medium: A volume of 250 ml of detection medium is prepared from a powdered medium having the following composition:
(§2) Melting is carried out at 100° C., and the medium is autoclaved at 121° C. for 15 minutes. The additives are then added to the medium: Magenta C8 (500 mg/l; B-7102, BIOSYNTH, Staad, Switzerland); X-glucoside (75 mg/l; B-7250, BIOSYNTH, Staad, Switzerland); cefsulodine (10 mg/l; C 4786, Sigma, St Quentin Fallavier, France), and also the esterase inhibitor: • ? O,O-diethyl p-nitrophenyl phosphate: 5 mg/l • ? O,O-dimethyl p-nitrophenyl phosphate: 25 mg/l or • ? O,O-di-(2-chloroethyl)-O-(3-chloro-4-methylcoumarin-7-yl)phosphate: 75 mg/l
(§3) The various selection media thus obtained are then poured into Petri dishes.
(§4) Seeding of yeast of the Candida genus: 10 μl of stools are deposited onto a Petri dish, and this stool suspension is mixed or not mixed with 10 μl of a suspension of Candida and isolated as 3 dials on a Petri dish. Various stools and various strains of Candida genus originating from the applicant's collection are used according to this protocol. The Petri dishes are incubated at 37° C. for 24 hours.
(§5) The appearance of a coloration at the point of deposit of the stool and in the Candida colonies is read according to a semi-quantitative scale: • 0=absence of coloration • 0.5=trace coloration • 1=weak coloration • 2=strong coloration.

Salmonella Paratyphi A = assay: Coloration of Salmonella Paratyphi A colonies on detection medium; format: cell-based; parameters: key: 0=no coloration; 0.5=trace of coloration; 1=weak coloration; 2=strong coloration
Description: as §1
(§6) Melting is carried out at 100° C., and the medium is autoclaved at 121° C. for 15 minutes. The additives are then added to the medium: Magenta C8 (500 mg/l; B-7102, BIOSYNTH, Staad, Switzerland); X-glucoside (75 mg/l; B-7250, BIOSYNTH, Staad, Switzerland); cefsulodine (10 mg/l; C 4786, Sigma, St Quentin Fallavier, France) and various concentrations of the inhibitor O,O-diethyl p-nitrophenyl phosphate (Paraoxon® ethyl; CAS No. 311-45-5; 36186, Riedel-de Haën, St Quentin Fallavier, France; 0; 1; 5 or 10 mg/l).
(§7) The various detection media thus obtained are then poured into Petri dishes.
(§8) Seeding of Salmonella bacteria: 10 μl of stools are deposited onto a Petri dish, this stool suspension is mixed or not mixed with 10 μl of a suspension of Salmonella (0.5 McF) and isolated as 3 dials on a Petri dish. Various […] and various Salmonella strains originating from the applicant's collection are used according to this protocol. The Petri dishes are incubated at 37° C. for 24 hours. The appearance of a coloration at the point of deposit of the stool (“deposit” column) and at the Salmonella colony (“colony” column) is read according to a semi-quantitative scale: • 0=no coloration • 0.5=trace of coloration • 1=weak coloration • 2=strong coloration The results obtained are given in Table 1.
(§9) Preparation of the detection medium: 250 ml of the medium of Example 1, in which the O,O-diethyl p-nitrophenyl phosphate is replaced with various concentrations of O,O-di-(2-chloroethyl)-O-(3-chloro-4-methylcoumarin-7-yl)phosphate (Haloxon®; CAS No. 321-55-1; R276995, Sigma, St Quentin Fallavier, France; 0; 1; 10; 100 or 1000 mg/l), are prepared according to the method of Example 1.
as §3
(§10) Seeding of Salmonella bacteria: The Petri dishes are inoculated, incubated and read as in Example 1.

free esterases in stools = assay: Coloration at the point of deposit of the stool on Candida detection medium; format: biochemical; parameters: key: 0=absence of coloration; 0.5=trace coloration; 1=weak coloration; 2=strong coloration; details: Table 4, no strain
Description: as §1, §2, §3, §4, §5

Candida albicans = assay: Coloration of Candida albicans colonies on detection medium; format: cell-based; parameters: key: 0=absence of coloration; 0.5=trace coloration; 1=weak coloration; 2=strong coloration; details: stool B
Description: as §1, §2, §3, §4, §5

[1] = system: free esterases in a stool sample; assay: Coloration at the point of deposit of the stool on Salmonella detection medium (Magenta C8); format: biochemical; parameters: key to Deposit coloration: 0=no coloration; 0.5=trace of coloration; 1=weak coloration; 2=strong coloration; details: for Aspecific enzymatic reactions due to the presence of free enzymes: stools, Salmonella detection medium, summary in words
Description: as §1, §6, §7, §8
as §6, with “O,O-dimethyl” for “O,O-diethyl”, “methyl;” for “ethyl;”, “950-35-6;” for “311-45-5; 36186,”, “5, 10, 25” for “0; 1; 5 or 10”
as §10, §9, §3

Candida dubliniensis = assay: Coloration of Candida dubliniensis colonies on detection medium; format: cell-based; parameters: key: 0=no coloration; 0.5=trace of coloration; 1=weak coloration; 2=strong coloration; details: Table 4, 25 mg/l
Description: as §1, §2, §3, §4, §5

CCOP(=O)(OCC)Oc1ccc([N+](=O)[O-])cc1 [O,O-diethyl p-nitrophenyl phosphate]
Colonies coloration (Candida krusei; Table 4, 5 mg/l, stool A): 0.5
Colonies coloration (Candida krusei; Table 4, 5 mg/l, stool B): 0.5
Colonies coloration (Salmonella Paratyphi A; Table 1, 1 mg/l, stool A): 1
Colonies coloration (Salmonella Paratyphi A; Table 1, 1 mg/l, stool B): 1
Colonies coloration (Salmonella Paratyphi A; Table 1, 5 mg/l, stool A): 1
Colonies coloration (Salmonella Paratyphi A; Table 1, 5 mg/l, stool B): 1
Colonies coloration (Salmonella Paratyphi A; Table 1, 10 mg/l, stool A): 1
Colonies coloration (Salmonella Paratyphi A; Table 1, 10 mg/l, stool B): 1
Deposit coloration (free esterases in stools; 5 mg/l, stool A): 0
Deposit coloration (free esterases in stools; 5 mg/l, stool B): 0
Colonies coloration (Candida albicans; Table 4, 5 mg/l): 0.5
Deposit coloration ([1]; Table 1, 1 mg/l, stool A, Salmonella Enteritidis): 0.5
Deposit coloration ([1]; Table 1, 1 mg/l, stool A, Salmonella Paratyphi A): 0.5
Deposit coloration ([1]; Table 1, 1 mg/l, stool A, Salmonella Typhi): 0.5
Deposit coloration ([1]; Table 1, 1 mg/l, stool A, no strain): 0.5
Deposit coloration ([1]; Table 1, 1 mg/l, stool B, Salmonella Enteritidis): 0
Deposit coloration ([1]; Table 1, 1 mg/l, stool B, Salmonella Paratyphi A): 0
Deposit coloration ([1]; Table 1, 1 mg/l, stool B, Salmonella Typhi): 0
Deposit coloration ([1]; Table 1, 1 mg/l, stool B, no strain): 0
Deposit coloration ([1]; Table 1, 5 mg/l, stool A, Salmonella Enteritidis): 0
Deposit coloration ([1]; Table 1, 5 mg/l, stool A, Salmonella Paratyphi A): 0
Deposit coloration ([1]; Table 1, 5 mg/l, stool A, Salmonella Typhi): 0
Deposit coloration ([1]; Table 1, 5 mg/l, stool A, no strain): 0
Deposit coloration ([1]; Table 1, 5 mg/l, stool B, Salmonella Enteritidis): 0
Deposit coloration ([1]; Table 1, 5 mg/l, stool B, Salmonella Paratyphi A): 0
Deposit coloration ([1]; Table 1, 5 mg/l, stool B, Salmonella Typhi): 0
Deposit coloration ([1]; Table 1, 5 mg/l, stool B, no strain): 0
Deposit coloration ([1]; Table 1, 10 mg/l, stool A, Salmonella Enteritidis): 0
Deposit coloration ([1]; Table 1, 10 mg/l, stool A, Salmonella Paratyphi A): 0
Deposit coloration ([1]; Table 1, 10 mg/l, stool A, Salmonella Typhi): 0
Deposit coloration ([1]; Table 1, 10 mg/l, stool A, no strain): 0
Deposit coloration ([1]; Table 1, 10 mg/l, stool B, Salmonella Enteritidis): 0
Deposit coloration ([1]; Table 1, 10 mg/l, stool B, Salmonella Paratyphi A): 0
Deposit coloration ([1]; Table 1, 10 mg/l, stool B, Salmonella Typhi): 0
Deposit coloration ([1]; Table 1, 10 mg/l, stool B, no strain): 0
Aspecific enzymatic reactions due to the presence of free enzymes [1]: greatly inhibited

COP(=O)(OC)Oc1ccc([N+](=O)[O-])cc1 [O,O-dimethyl p-nitrophenyl phosphate]
Colonies coloration (Candida krusei; Table 4, 25 mg/l, stool A): 0.5
Colonies coloration (Candida krusei; Table 4, 25 mg/l, stool B): 0.5
Deposit coloration (free esterases in stools; 25 mg/l, stool A): 0
Deposit coloration (free esterases in stools; 25 mg/l, stool B): 0
Colonies coloration (Candida albicans; Table 4, 25 mg/l): 0.5
Colonies coloration (Candida dubliniensis; stool A): 1
Colonies coloration (Candida dubliniensis; stool B): 1
Deposit coloration ([1]; Table 2, 5 mg/l, stool C, Salmonella Enteritidis): 1
Deposit coloration ([1]; Table 2, 5 mg/l, stool C, Salmonella Typhi): 1
Deposit coloration ([1]; Table 2, 5 mg/l, stool C, no strain): 1
Deposit coloration ([1]; Table 2, 5 mg/l, stool D, Salmonella Enteritidis): 1
Deposit coloration ([1]; Table 2, 5 mg/l, stool D, Salmonella Typhi): 1
Deposit coloration ([1]; Table 2, 5 mg/l, stool D, no strain): 1
Deposit coloration ([1]; Table 2, 10 mg/l, stool C, Salmonella Enteritidis): 0.5
Deposit coloration ([1]; Table 2, 10 mg/l, stool C, Salmonella Typhi): 0.5
Deposit coloration ([1]; Table 2, 10 mg/l, stool C, no strain): 0.5
Deposit coloration ([1]; Table 2, 10 mg/l, stool D, Salmonella Enteritidis): 1
Deposit coloration ([1]; Table 2, 10 mg/l, stool D, Salmonella Typhi): 1
Deposit coloration ([1]; Table 2, 10 mg/l, stool D, no strain): 1
Deposit coloration ([1]; Table 2, 25 mg/l, stool C, Salmonella Enteritidis): 0
Deposit coloration ([1]; Table 2, 25 mg/l, stool C, Salmonella Typhi): 0
Deposit coloration ([1]; Table 2, 25 mg/l, stool C, no strain): 0
Deposit coloration ([1]; Table 2, 25 mg/l, stool D, Salmonella Enteritidis): 0
Deposit coloration ([1]; Table 2, 25 mg/l, stool D, Salmonella Typhi): 0
Deposit coloration ([1]; Table 2, 25 mg/l, stool D, no strain): 0
Aspecific enzymatic reactions due to the presence of free enzymes [1]: greatly inhibited

— US7691601B2, “Medium for detecting and/or identifying of microorganisms” (priority 2003, dated 2010)
